The subject of assay [1] is HEY cells. As to the kind of experiment: Cellular cisplatin sensitization assay. In kind it is cell-based, human. The conditions noted are these: absence of cisplatin, peptide 50 μM or chloroquine 5 μM, 48 h.
The test system of assay [2] is OVCAR8 cells. As to the kind of experiment: Cellular cisplatin sensitization assay. The class given is cell-based, human. The conditions noted are these: OVCAR8, absence of cisplatin, peptide 50 μM or chloroquine 5 μM, 48 h.

For `CCN(CC)CCCC(C)Nc1ccnc2cc(Cl)ccc12` (centres unmarked) [chloroquine], the “cell viability (MTT), in words” value in assay [1] and in assay [2] was “significantly reduced cell viability” each time.

The record behind these values is publication PMC8179393 (Chemical Science, 2021).
